Assay results: patent US12048309B2, “Materials and methods for preventing and dispersing exopolysaccharide-containing biofilms involving Listeria monocytogenes” (University of Wyoming, priority 2021, dated 2024)

Test system: EPS-biofilm formation by L. monocytogenes
Test: Test of major ingredients of red maple (Acer rubrum) methanol extract for preventing EPS-biofilm formation
Type: cell-based, Listeria monocytogenes
Conditions: ingredients of methanol extract of dried red maple stems
Procedure: To identify active components responsible for preventing EPS-biofilm formation by L. monocytogenes, major ingredients from methanol extract of dried red maple stems, Acer rubrum, were tested. The tested compositions included catechin, epicatechin, procyanidin A2, epicatechin gallate, nortrachelogenin (also known as pinopalustrin), and nortrachelogenin 8′-O-β-D-glucopyranoside (also known as nortrachelogenin-8′-O-beta-glucoside).
Other major ingredients of the maple methanol extract, including catechin, epicatechin, procyanidin A2, and epicatechin gallate had no effect.

Molecule	antibiofilm activity
O=C(O[C@@H]1Cc2c(O)cc(O)cc2O[C@@H]1c1ccc(O)c(O)c1)c1cc(O)c(O)c(O)c1 [epicatechin gallate]	no effect
Oc1cc(O)c2c(c1)O[C@H](c1ccc(O)c(O)c1)[C@H](O)C2 [epicatechin]	no effect
COc1cc(CC2COC(=O)C2(O)Cc2ccc(O)c(OC)c2)ccc1O (centres unmarked) [nortrachelogenin]	no significant antibiofilm activity
Oc1cc(O)c2c(c1)O[C@@]1(c3ccc(O)c(O)c3)Oc3cc(O)c4c(c3[C@@H]2[C@H]1O)O[C@H](c1ccc(O)c(O)c1)[C@H](O)C4 [procyanidin A2]	no effect
catechin	no effect
